From ChEMBL document CHEMBL1151157, “New cytotoxic steroids from the Indian Ocean sponge Axinella cf. bidderi” (2004)
≈ marks a conversion by molar mass, not a printed value. Calls of active or inactive are those of the source. No cut-off for these calls is given here.

Assays:
Format in all cases: functional
[1] = system: LNCaP; test: Cytotoxicity against human LNCAP cells by MTT assay
[2] = system: PANC-1; test: Cytotoxicity against human PANC1 cells by MTT assay
[3] = system: LoVo; test: Cytotoxicity against human LoVo cells by MTT assay
[4] = Cytotoxicity against human IGROV-ET cells by MTT assay
[5] = (§1) Cytotoxicity against human NSCLC-N6-L16 cells by MTT assay
[6] = species: Homo sapiens; test: as §1

Structure (SMILES) | GI50 [1] [µg/mL] | GI50 [2] [µg/mL] | GI50 [3] [µg/mL] | GI50 [4] [µg/mL] | GI50 [5] [µg/mL] | Activity [2] | Activity [6]
CC(C)CC1OC1[C@@H](C)[C@@]1(O)CC[C@H]2[C@@H]3CC=C4C[C@@H](O)CC[C@]4(C)[C@H]3CC[C@@]21C (stereo not given in full) | 3.09 (≈ 7.42 µM) | 2.17 (≈ 5.21 µM) | 6.23 (≈ 15 µM) | 1.24 (≈ 2.98 µM) | 2 (≈ 4.8 µM) |  | 
CC(C)C(C)C1OC1[C@@H](C)[C@@]1(O)CC[C@H]2[C@@H]3CC=C4C[C@@H](O)CC[C@]4(C)[C@H]3CC[C@@]21C (stereo not given in full) | 6.42 (≈ 14.9 µM) | 2.74 (≈ 6.36 µM) | 4.02 (≈ 9.33 µM) | 1.68 (≈ 3.9 µM) | 0.6 (≈ 1.39 µM) |  | 
CC1=C(CCC(C)C)OC[C@]23CC[C@H]4[C@@H](CC[C@H]5C[C@@H](O)CC[C@@]54C)[C@@H]2CC[C@H]13 | 2.88 (≈ 7.19 µM) |  | 8.29 (≈ 20.7 µM) | 6.66 (≈ 16.6 µM) |  | inactive | inactive
CC1=C(CCC(C)C)OC[C@]23CC[C@H]4[C@@H](CC=C5C[C@@H](O)CC[C@@]54C)[C@@H]2CC[C@H]13 | 3.52 (≈ 8.83 µM) | 8.92 (≈ 22.4 µM) | 6.91 (≈ 17.3 µM) | 7.95 (≈ 19.9 µM) |  |  | inactive
